Results: ChEMBL document CHEMBL1201862, “PubChem BioAssay data set” (2004)
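Results reflect a 48-hour exposure of cells in 96-well plates to compound at five concentrations. GI50 marks 50% less growth.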 Active and inactive are the calls of the source. Rule as the data show it: active = GI50 up to about 1.1 µM and inactive = higher.

How the values were obtained:
Test in all cases: NCI-60 cell line screen, 48 h
CAKI-1 = test system: CAKI-1
CCRF-CEM = test system: CCRF-CEM
Hs-578T = test system: Hs-578T
IGROV-1 = test system: IGROV-1
MDA-MB-231 = test system: MDA-MB-231
MDA-MB-435 = test system: MDA-MB-435
NCI-H226 = test system: NCI-H226
NCI-H23 = test system: NCI-H23
NCI-H460 = test system: NCI-H460
NCI/ADR-RES = test system: NCI/ADR-RES
RPMI-8226 = test system: RPMI-8226
RXF 393 = test system: RXF 393
SF-268 = test system: SF-268
SF-295 = test system: SF-295
SK-MEL-2 = test system: SK-MEL-2
SK-MEL-5 = test system: SK-MEL-5
SK-OV-3 = test system: SK-OV-3
SN12C = test system: SN12C
UACC-62 = test system: UACC-62
HOP-18 = test system: HOP-18

SMILES | GI50 (CAKI-1) | GI50 (CCRF-CEM) | GI50 (Hs-578T) | GI50 (IGROV-1) | GI50 (MDA-MB-231) | GI50 (MDA-MB-435) | GI50 (NCI-H226) | GI50 (NCI-H23) | GI50 (NCI-H460) | GI50 (NCI/ADR-RES) | GI50 (RPMI-8226) | GI50 (RXF 393) | GI50 (SF-268) | GI50 (SF-295) | GI50 (SK-MEL-2) | GI50 (SK-MEL-5) | GI50 (SK-OV-3) | GI50 (SN12C) | GI50 (UACC-62) | GI50 (HOP-18)
Cc1nc(O)c(O)c(CN2CCCCC2)n1 | > 100 µM (inactive) | > 100 µM (inactive) | > 100 µM (inactive) | > 100 µM (inactive) | > 100 µM (inactive) | > 100 µM (inactive) | > 100 µM (inactive) | > 100 µM (inactive) | > 100 µM (inactive) | > 100 µM (inactive) | > 100 µM (inactive) | > 100 µM (inactive) | > 100 µM (inactive) | > 100 µM (inactive) | > 100 µM (inactive) | > 100 µM (inactive) | > 100 µM (inactive) | > 100 µM (inactive) | > 100 µM (inactive) | 
Cc1cc(Cl)ccc1NC(=O)CCCC(=O)C1C/C(=N/O)CC/C1=N\O (configuration not stated) | > 100 µM (inactive) | > 100 µM (inactive) |  | > 100 µM (inactive) |  |  | > 100 µM (inactive) | > 100 µM (inactive) | > 100 µM (inactive) |  | > 100 µM (inactive) |  | > 100 µM (inactive) | > 100 µM (inactive) | > 100 µM (inactive) | > 100 µM (inactive) | > 100 µM (inactive) | > 100 µM (inactive) | > 100 µM (inactive) | > 100 µM (inactive)
CC(=O)CC1CCC(=O)/C=C/C(=O)OC(CC(C)=O)CCC(=O)/C=C/C(=O)O1 (configuration not stated) | 6.53 µM (inactive) | 1.6 µM (inactive) | 27.9 µM (inactive) | 16.1 µM (inactive) | 5.09 µM (inactive) | 17 µM (inactive) | 33 µM (inactive) | 17.5 µM (inactive) | 18.5 µM (inactive) | 19.9 µM (inactive) | 2.9 µM (inactive) | 3.22 µM (inactive) | 25.9 µM (inactive) | 13.6 µM (inactive) | 6.61 µM (inactive) | 13.8 µM (inactive) | 20.7 µM (inactive) | 8.55 µM (inactive) | 14.6 µM (inactive) | 
NCCCc1c(-c2ccccc2)[nH]c(N)nc1=O | > 100 µM (inactive) | > 100 µM (inactive) | > 100 µM (inactive) | > 100 µM (inactive) | > 100 µM (inactive) | > 100 µM (inactive) | > 100 µM (inactive) | > 100 µM (inactive) | > 100 µM (inactive) | > 100 µM (inactive) | > 100 µM (inactive) | > 100 µM (inactive) | > 100 µM (inactive) | > 100 µM (inactive) | > 100 µM (inactive) | > 100 µM (inactive) | > 100 µM (inactive) | > 100 µM (inactive) | > 100 µM (inactive) | 
Nc1ncc(N)c(NCC2(CO)CC(CCc3ccccc3)C2)n1 (configuration not stated) | 7.73 µM (inactive) | 0.413 µM (active) | 9.55 µM (inactive) | 7.94 µM (inactive) | 4.65 µM (inactive) | 11 µM (inactive) | 5.83 µM (inactive) | 5.13 µM (inactive) | 13.1 µM (inactive) | 12.4 µM (inactive) | 0.482 µM (active) | 12.5 µM (inactive) | 5.58 µM (inactive) | 11.1 µM (inactive) | 6.95 µM (inactive) | 3.13 µM (inactive) | 12.2 µM (inactive) | 7.67 µM (inactive) | 5.81 µM (inactive) | 
O=C(Nc1ccccc1C(=O)NC(=O)c1ccccc1NC(=O)c1ccccc1)c1ccccc1 | 10.6 µM (inactive) | 3.91 µM (inactive) |  | 1.86 µM (inactive) |  |  |  | 4.57 µM (inactive) | 7.71 µM (inactive) |  | 1.46 µM (inactive) | 2.88 µM (inactive) | 6.85 µM (inactive) | 10.8 µM (inactive) | 1.87 µM (inactive) | 2.9 µM (inactive) |  | 4.51 µM (inactive) | 2.07 µM (inactive) | 4.49 µM (inactive)
C/C(=N/NC(N)=S)c1ccc[nH]1 | > 100 µM (inactive) | > 100 µM (inactive) | > 100 µM (inactive) | > 100 µM (inactive) | > 100 µM (inactive) | > 100 µM (inactive) | > 100 µM (inactive) | > 100 µM (inactive) | > 100 µM (inactive) | > 100 µM (inactive) | > 100 µM (inactive) | > 100 µM (inactive) | > 100 µM (inactive) | > 100 µM (inactive) | > 100 µM (inactive) | > 100 µM (inactive) | > 100 µM (inactive) | > 100 µM (inactive) | > 100 µM (inactive) | 
CCCc1ccc(OCC(=O)N/N=C/c2c(-c3ccccc3)[nH]c3ccccc23)cc1 | 21.1 µM (inactive) | 5.98 µM (inactive) | 28.4 µM (inactive) | 13.1 µM (inactive) | 7.06 µM (inactive) | 2.77 µM (inactive) | 17.3 µM (inactive) | 13.6 µM (inactive) | 4 µM (inactive) | 6.81 µM (inactive) | 5.48 µM (inactive) | 11.1 µM (inactive) | 27.7 µM (inactive) | 8.69 µM (inactive) | 3.23 µM (inactive) | 8.43 µM (inactive) | 27.2 µM (inactive) | 14 µM (inactive) | 11.9 µM (inactive) | 
N#Cc1nc(Nc2ccc([N+](=O)[O-])cc2)sc1N | 11.9 µM (inactive) | 3.4 µM (inactive) |  | 23.4 µM (inactive) |  |  | 27.4 µM (inactive) | 4.44 µM (inactive) | 28.8 µM (inactive) |  | 3.45 µM (inactive) |  | 11.8 µM (inactive) | 26.5 µM (inactive) | 21.6 µM (inactive) | 3.79 µM (inactive) | 26.9 µM (inactive) | 7.8 µM (inactive) | 15.8 µM (inactive) | 61.2 µM (inactive)
CC(C)C(Sc1nc(N)nc2nc[nH]c12)C(=O)O (configuration not stated) | > 100 µM (inactive) | > 100 µM (inactive) | > 100 µM (inactive) | > 100 µM (inactive) | > 100 µM (inactive) | > 100 µM (inactive) | > 100 µM (inactive) | > 100 µM (inactive) | > 100 µM (inactive) | > 100 µM (inactive) | > 100 µM (inactive) | > 100 µM (inactive) | > 100 µM (inactive) | > 100 µM (inactive) | > 100 µM (inactive) | > 100 µM (inactive) | > 100 µM (inactive) | > 100 µM (inactive) | > 100 µM (inactive) | 
O=C(CSCC(=O)N/N=C/c1ccc2c(c1)OCO2)N/N=C/c1ccc2c(c1)OCO2 | > 100 µM (inactive) | 82.2 µM (inactive) | > 100 µM (inactive) | > 100 µM (inactive) | > 100 µM (inactive) | 38.3 µM (inactive) | 40.2 µM (inactive) | 27 µM (inactive) | > 100 µM (inactive) | > 100 µM (inactive) | 49.3 µM (inactive) | > 100 µM (inactive) | > 100 µM (inactive) | 44.6 µM (inactive) | > 100 µM (inactive) | 24.2 µM (inactive) | > 100 µM (inactive) | > 100 µM (inactive) | 52.6 µM (inactive) | 
O=C(CCc1ccccc1CO)NCCc1ccccc1 | > 100 µM (inactive) | > 100 µM (inactive) | 20 µM (inactive) | > 100 µM (inactive) | > 100 µM (inactive) | > 100 µM (inactive) | > 100 µM (inactive) | > 100 µM (inactive) | > 100 µM (inactive) | > 100 µM (inactive) | > 100 µM (inactive) | > 100 µM (inactive) | > 100 µM (inactive) | > 100 µM (inactive) | > 100 µM (inactive) | > 100 µM (inactive) | > 100 µM (inactive) | > 100 µM (inactive) | > 100 µM (inactive) | 
O=S(=O)(O)C(Cc1nc2ccccc2[nH]1)S(=O)(=O)OCCC1S(=O)(=O)OCCOS1(=O)=O (configuration not stated) | > 100 µM (inactive) | > 100 µM (inactive) | > 100 µM (inactive) | > 100 µM (inactive) | > 100 µM (inactive) | > 100 µM (inactive) | > 100 µM (inactive) | > 100 µM (inactive) | > 100 µM (inactive) | > 100 µM (inactive) | > 100 µM (inactive) | > 100 µM (inactive) | > 100 µM (inactive) | > 100 µM (inactive) | > 100 µM (inactive) | > 100 µM (inactive) | > 100 µM (inactive) | > 100 µM (inactive) | > 100 µM (inactive) | 
Nc1c(S(=O)(=O)O)cc(Nc2cccc(S(N)(=O)=O)c2)c2c1C(=O)c1ccccc1C2=O | > 100 µM (inactive) | > 100 µM (inactive) | 29 µM (inactive) | > 100 µM (inactive) | > 100 µM (inactive) | 17.7 µM (inactive) | > 100 µM (inactive) | 35.1 µM (inactive) | 87.5 µM (inactive) | > 100 µM (inactive) | > 100 µM (inactive) | 74.3 µM (inactive) | > 100 µM (inactive) | 49.7 µM (inactive) | 75.7 µM (inactive) | 37.5 µM (inactive) | 27.5 µM (inactive) | > 100 µM (inactive) | 24.2 µM (inactive) | 
Cc1nnc2sc(NN)nn12 | > 100 µM (inactive) | 41.4 µM (inactive) | > 100 µM (inactive) | > 100 µM (inactive) | > 100 µM (inactive) | > 100 µM (inactive) | > 100 µM (inactive) | > 100 µM (inactive) | > 100 µM (inactive) | > 100 µM (inactive) | > 100 µM (inactive) | > 100 µM (inactive) | > 100 µM (inactive) | > 100 µM (inactive) | > 100 µM (inactive) | > 100 µM (inactive) | > 100 µM (inactive) | > 100 µM (inactive) | 77.4 µM (inactive) | 
